In PMC5719408, “Multivalent cross-linking of actin filaments and microtubules through the microtubule-associated protein Tau” (Nature Communications, 2017):
Where two headings read alike, the source gives them in different places.

Columns and labels:
Tau = experiment: Binding of cofilin to Tau (HSQC); design: species or system human; conditions: 15N-Tau/F-actin 1:1.5, 10-fold excess of cofilin
Method: In order to gain insight into how Tau regulates the polymerization and structure of F-actin, we sought to obtain information about the Tau-binding site on F-actin. […] One of these binding partners is cofilin, a 21 kDa eukaryotic protein, which binds to F-actin with a K d < 0.05 µM[33] and results in disassembly of F-actin[34], [35]. […] To test if the binding site of Tau on F-actin overlaps with that of cofilin, we added a 10-fold excess of cofilin to a solution containing ^15N-labeled Tau and 1.5-fold excess (with respect to Tau) of F-actin. For the resulting mixture, a ^1H-^15N HSQC spectrum was recorded. […] Subsequently, we repeated the actin/Tau co-sedimentation assay in the presence of cofilin.
Human Tau (2N4R) was expressed in the E. coli strain BL21 (DE3) (MERCK Millipore) using the vector pNG2 as described. The bacterial pellet was resuspended in lysis buffer (50 mM Mes, 500 mM NaCl, 1 mM MgCl2, 1 mM EGTA, 5 mM DTT, pH 6.8) and supplemented with a protease inhibitor mixture. Cells were disrupted using a French pressure cell and subsequently boiled for 20 min. […]
For HSQC-based competition experiments, 20 μM of ^15N-labeled Tau were mixed with 30 μM F-actin in NMR buffer supplemented with 0.2 mM ATP and 0.2 mM CaCl2 (sample 2). […] Competition was monitored by reading out the variation in signal broadening in 2D ^1H-^15N HSQC spectra of Tau.

F-actin [1] = experiment: Protein co-sedimentation / actin bundling (differential centrifugation, SDS gel); format: biochemical, human; conditions: molar ratio 1.5:1:10
F-actin [2] = conditions: read-out: Kd of cofilin for F-actin; cited from earlier work
Method: In order to gain insight into how Tau regulates the polymerization and structure of F-actin, we sought to obtain information about the Tau-binding site on F-actin. […] One of these binding partners is cofilin, a 21 kDa eukaryotic protein, which binds to F-actin with a K d < 0.05 µM[33] and results in disassembly of F-actin[34], [35].

F-actin [3] = experiment: Transfer NOE (2D NOESY) of Tau peptides with F-actin; format: binding, human; conditions: 27 μM F-actin, 800 μM peptide, NMR buffer pH 6.8 with 0.2 mM ATP and 0.2 mM CaCl2, 278 K
Description: Instead, short hydrophobic Tau segments, which are separated from each other by flexible residues, bind dynamically to actin’s hydrophobic pocket (Fig. 2). […] NMR Nuclear overhauser effect (NOE) measurements that are sensitive for three-dimensional structure were subsequently performed. […] This approach is called transfer NOE and has been widely used to determine the structure of small ligands in complex with high molecular weight binding partners.
Two-dimensional NOESY experiments with five different mixing times ranging from 50 up to 250 ms were recorded for Tau(254–290) in the presence of F-actin. […] The NOE peaks, which were observed only in the presence of F-actin, provide experimental restraints for the structure of Tau(254–290) in complex with F-actin.
(§1) The sample was then dialyzed against General Actin Buffer (GAB; 5 mM TrisHCl pH 8.0, 0.2 mM CaCl2, 0.2 mM ATP, 0.5 mM DTT) or NMR buffer (50 mM NaH2PO4/Na2HPO4 pH 6.8, 10 mM NaCl, 1 mM DTT, 10% (v/v) D2O) to be used for electron microscopy or NMR experiments, respectively. In case of actin, lyophilized actin was reconstituted to 10 mg ml^−1 by adding 100 μl of distilled water to be in the following buffer: GAB with 5% (w/v) sucrose and 1% (w/v) dextran. Subsequently, the sample was spun at 18,400 × g for 15 min, the supernatant was kept, and actin was polymerized by incubating 0.4 mg ml^−1 G-actin in GAB and supplemented with polymerization buffer (1/10th the volume; 100 mM Tris HCl pH 7.5, 20 mM MgCl2, 500 mM KCl, 10 mM ATP) for 1 h at room temperature. Afterwards, the sample was centrifuged at 100,000 × g during 1 h at 4 °C. Filaments were collected at the bottom of the ultracentrifuge tube. The pellet was then resuspended in GAB or NMR Buffer as required.
NMR spectra were acquired on Bruker Avance800 and 900 MHz NMR spectrometers at 278 K to reduce solvent exchange. 2D ^1H-^15N HSQC spectra consisted of 64 scans, spectral windows of 12 ppm in the proton and 25 ppm in the nitrogen dimension. 2D NOESY experiments were acquired using 88 scans, 12 ppm spectral width and a time domain of 512 and 2048 points in the first and second dimension, respectively. To generate buildup curves, mixing times of 50, 80, 100, 150, and 250 ms were used.
For NOESY experiments, 27 μM of F-actin were mixed with 800 μM of Tau peptide in NMR buffer supplemented with 0.2 mM ATP and 0.2 mM CaCl2. A reference experiment was performed in similar conditions only with 800 μM peptide. For resonance assignment, a 2D TOCSY experiment with a mixing time of 75 ms was performed. All data were processed using NMRPipe[76] and analyzed using Sparky[77].

F-actin [4] = experiment: Electron microscopy of actin bundles; format: biochemical, human; conditions: uranyl acetate stain, room temperature
Method: The ability of Tau to bundle F-actin was studied using electron microscopy (EM). The diameter of single actin filaments was approximately 7 nm, in agreement with previous studies, [30]. […] Actin bundles ranged between 20 and 150 nm in diameter. Next, Tau/F-actin co-sedimentation was performed. The same sample, which was used for EM, was exposed to two sequential steps of centrifugation, in which single-actin filaments and actin bundles were collected separately. Subsequently, aliquots from supernatant (SN), filament (PF), and bundle (PB) fractions were loaded in a 4–20% gradient gel (Fig. 1c). […] In addition, ~8% of Tau molecules were bound to single filaments, while ~29% of Tau was found together with actin bundles.
The sample was then dialyzed against General Actin Buffer (GAB; 5 mM TrisHCl pH 8.0, 0.2 mM CaCl2, 0.2 mM ATP, 0.5 mM DTT) or NMR buffer (50 mM NaH2PO4/Na2HPO4 pH 6.8, 10 mM NaCl, 1 mM DTT, 10% (v/v) D2O) to be used for electron microscopy or NMR experiments, respectively. […]
Samples were bound to a glow discharged carbon foil covered copper grid. […] The samples were evaluated at room temperature using a CM 120 transmission electron microscope (FEI, Eindhoven, and The Netherlands) and a TemCam F416 CMOS camera (TVIPS, Gauting, Germany).

F-actin [5] = conditions: phosphate buffer; read-out: Kd of Tau/F-actin, previously reported; cited from earlier work
Method: 0.2 μM of NBD-labeled and phalloidin-stabilized F-actin were mixed with increasing amounts of Tau (Fig. 1d and Supplementary Fig. 1). […] Other stoichiometries, however, cannot be excluded. The derived dissociation constant is lower than a previously reported value of 241 ± 43 nM[7] ...

F-actin [6] = experiment: Titration of F-actin into 15N-Tau, two-state Bloch-McConnell fit (peer review file); format: binding, human; conditions: grid-search pushed to the edge of the parameter space, fits were not good
Description: (4 pictures or pasted objects on this page, not shown here)

NBD-labeled F-actin = biological target: T1, NBD-labeled F-actin (Oryctolagus cuniculus, UniProt P68135); experiment: F-actin binding assay (NBD fluorescence change); conditions: 25 °C
T1 construct: NBD-conjugated actin from α-skeletal muscle was bought from Hypermol; purchased Hypermol (Bielefeld, Germany); host or cells: α-skeletal muscle (tissue-derived (so in the source))
Method: In order to gain insight into the affinity of the Tau/F-actin-interaction, the change in fluorescence of 7-chloro-4-nitrobenz-2-oxa-1,3-diazole (NBD)-labeled F-actin upon addition of Tau was followed[31]. 0.2 μM of NBD-labeled and phalloidin-stabilized F-actin were mixed with increasing amounts of Tau (Fig. 1d and Supplementary Fig. 1).
NBD-conjugated actin from α-skeletal muscle was bought from Hypermol (Bielefeld, Germany). In this experiment, 7-chloro-4-nitrobenz-2-oxa-1,3-diazole (NBD)-labeled G-actin was polymerized starting from 0.4 mg ml^−1 of the conjugated actin supplemented with 10-fold excess of phalloidin (catalog no. P2141, Sigma-Aldrich) to provide stable filaments. […] The change of fluorescence intensity from NBD was followed in a Cary Eclipse fluorescence spectrophotometer (Agilent Technologies, Inc.). […] As reported by Hertzog, M. et al.[31] the normalized decrease in fluorescence (equation 1) was analyzed and fitted by using equation 2.1 E=F-F0/Fmax-F0 2 E=1/2C+1/2Z-1/2C+Z^2-4Z with Z=[partner]/[F-actin]andC=1+Kd/[F-actin]
Affinity of Tau and Tau fragments for binding to NBD-labeled F-actin. (a) Change of NBD fluorescence upon addition of increasing concentrations of Tau and Tau fragments. […]
(b) Bar diagram showing Kd values, which were determined based on the quenching effect of Tau/Tau fragments on the fluorescent properties of NBD-labeled F-actin. […]

F-actin [7] = experiment: Protein co-sedimentation / actin bundling (differential centrifugation, SDS gel); format: biochemical, human; conditions: for bundling of F-actin: co-sedimentation, F-actin with Tau (1:1) or Tau peptides (1:10, Tau(254–268) 1:30), room temperature 30 min
Method: The ability of Tau to bundle F-actin was studied using electron microscopy (EM). […] Next, Tau/F-actin co-sedimentation was performed. The same sample, which was used for EM, was exposed to two sequential steps of centrifugation, in which single-actin filaments and actin bundles were collected separately. Subsequently, aliquots from supernatant (SN), filament (PF), and bundle (PB) fractions were loaded in a 4–20% gradient gel (Fig. 1c).
as §1
Mixtures of F-actin with Tau (1:1) or Tau peptides (1:10 molar ratio) were incubated at room temperature for 30 min. In case of the shorter peptide Tau(254–268), a 1:30 ratio was used. Centrifugation was performed in two steps. First, a spin rate of 5000 × g was used during 15 min to collect bundles of F-actin (PB) at the bottom of the tube. Secondly, the remaining sample was centrifuged at 100,000 × g during 1 h collecting actin filaments (PF). The final supernatant (SN) was also kept for later usage. Pellets were resuspended in 80 μl of GAB. A volume of 25 μl of sample were taken for EM while the remaining 55 μl were loaded in a 4–20% gradient SDS gel, which was colored with […] and denatured with SDS and heat.

F-actin [8] = experiment: Saturation transfer difference (STD) NMR with F-actin; format: binding, human; conditions: compared with wild-type Tau(254–290)
Method: We therefore prepared a mutant version of Tau(254–290), in which L266 was replaced by a glutamate, i.e., Tau(254–290)-L266E. We then used saturation transfer difference (STD)[49] experiments to probe the influence of the mutation on binding of Tau(254–290) to F-actin.
as §1

## cofilin: human cofilin (catalog no. CF01, Cytoskeleton, Inc.), 21 kDa eukaryotic actin-binding protein
Tau
  binding of cofilin to Tau: does not bind to Tau
F-actin [1]; F-actin + Tau + cofilin
  disassembly of actin filaments by cofilin: actin filaments were not disassembled by cofilin
F-actin [1]
  effect of cofilin on Tau co-sedimentation with F-actin: decreased the amount of Tau that co-sedimented with F-actin
F-actin [2]
  Kd: < 50 nM

## Tau(254–290): synthetic Tau peptide, acetyl and amide protection groups at the N- and C terminus
F-actin [3]
  transfer NOE cross-peaks in presence of F-actin: additional NOE cross-peaks were observed
F-actin [4]
  bundling of F-actin (electron microscopy): bundles filaments

## Tau: full-length human Tau (2N4R), expressed in E. coli
F-actin [5]
  Kd: 241 ± 43 nM
F-actin [6]
  kon, local two-state NMR fit (residues I260, L266, G287/V287): ~10^7 M-1s-1
NBD-labeled F-actin; NBD-labeled, phalloidin-stabilized F-actin (α-skeletal muscle actin), 0.2 μM (Results) / 0.25 µM (Methods) F-actin, GAB (5 mM TrisHCl pH 8.0, 0.2 mM CaCl2, 0.2 mM ATP, 0.5 mM DTT), single-binding site fit, s.d. from three experiments, read-out: dissociation constant (Kd) of Tau or Tau fragment for F-actin
  Kd: 60 ± 10 nM
F-actin [4]
  bundling of F-actin (electron microscopy): caused bundling of F-actin
F-actin [7]; F-actin:Tau 1:1, room temperature 30 min, pellet of 5000 × g, 15 min
  Tau found together with actin bundles (PB): ~ 29%
F-actin [7]; F-actin:Tau 1:1, room temperature 30 min, pellet of 100,000 × g, 1 h
  Tau bound to single filaments (PF): ~ 8%
F-actin [7]; F-actin:Tau 1:1, room temperature 30 min, quantification of gel band intensity, supernatant after 100,000 × g
  Tau remaining in supernatant (SN): ~ 63%
F-actin [7]
  bundling of F-actin: bundles actin filaments

## Tau(254–290)-L266E: mutant version of Tau(254–290), in which L266 was replaced by a glutamate (Ac-KNVKSKIGSTENEKHQPGGGKVQIINKKLDLSNVQSK-NH2)
F-actin [3]
  transfer NOE cross-peaks in presence of F-actin: no additional cross-peaks were observed
NBD-labeled F-actin; NBD-labeled F-actin, GAB, values only in Supplementary Fig. 1b bar diagram
  affinity for F-actin relative to parent (in words): decrease in affinity
F-actin [7]
  bundling of F-actin: less efficient in promoting F-actin bundling
F-actin [8]
  STD signal relative to wild-type peptide: decreased STD signal

## K18: artificial fragment of Tau which comprises all four repeats (residues Gln244–Glu372 plus initial Met243)
F-actin [7]
  bundling of F-actin: capable of bundling F-actin

## Tau(254–284): Tau peptide, residues 254–284
F-actin [7]
  bundling of F-actin: promoted actin bundles

## Tau(292–319): Tau peptide comprising the residues of repeat R2 and R3
F-actin [3]
  transfer NOE cross-peaks in presence of F-actin: revealed NOEs specific for the Tau(292–319)/F-actin complex
F-actin [7]
  bundling of F-actin: promotes bundling of actin filaments

## Tau(254–268): contains the residues which form the helix in the N-terminal half of Tau(254–290) (Ac-KNVKSKIGSTENLKH-NH2)
F-actin [3]
  transfer NOE cross-peaks in presence of F-actin: folds into an α-helix (residues 259–265) in complex with F-actin
F-actin [7]
  bundling of F-actin: not able to bundle F-actin
